In test [1] the test system is BCG-induced c-Myc mRNA expression. In kind it is cell-based, human. The conditions noted are these: then BCG (M.O.I.=1) 3 hours, vs DMSO.
The test system of test [2] is c-Myc. The conditions noted are these: cited from earlier work.
Test [3] addresses T1, c-Myc (endogenous protein of primary human blood macrophages) (human, UniProt P01106 16-454).
T1 construct: Endogenous c-Myc in lysates of primary human blood macrophages (PBMac), with or without BCG treatment; also called cytoplasmic c-Myc
The test can be described thus: co-immunoprecipitation with anti-c-Myc antibody from PBMac lysates, Western blot. The procedure: Total proteins (200 μg) were extracted from PBMac by IP buffer (10 mM Tris [pH7.4], 1 mM EDTA, 1 mM EGTA, 150 mM NaCl, 0.5% NP-40, 1% Triton X-100, inhibitor cocktails of proteases and phosphatases), and were incubated with 1μg primary antibodies against IκBα(Santa Cruz Biotechnology, USA) or c-Myc (Millipore, USA) for 2 hours at 4° C. and then with 20 μl Protein A/G agarose beads (Santa Cruz Biotechnology, USA) for 1 hour at 4° C. The immunoprecipitates were then washed 6 times with IP buffer. Cytoplasmic and nuclear proteins were extracted from PBMac as previously described (Cheung et al., 2005; Lee et al., 2005). Immunoprecipitated, cytoplasmic (50 μg) or nuclear proteins (10 μg) were analyzed by Western Blot as in our previous reports (Cheung et al., 2005; Lee et al., 2005).
Background: In western blotting, separated proteins are transferred to a membrane and probed.

Test [4] concerns c-Myc. The test can be described thus: Induction of c-Myc expression by HIV-1 Tat in primary human blood macrophages (RT-PCR, Western blot). The conditions noted are these: Tat 2, 4 or 6 hours (mRNA); 20 or 100 ng/ml 24 hours (protein). The class given is cell-based. The procedure:
Briefly, PBMac were treated with or without Tat ([…]) for indicated time points (2, 4 or 6 hours). Total RNA was extracted for analyzing c-Myc mRNA expression levels by quantitative RT-PCR. In addition, PBMac were treated with HIV-1 Tat (20 or 100 ng/ml) for 24 hours. Cellular proteins were extracted for Western blot analyses to determine protein levels of c-Myc and actin. The level of actin was measured as a control of the amount of proteins loaded.

[5] abbreviates: 10 μM inhibitor 1 hour pretreatment.

Like-named read-outs stand apart in the source and are kept apart here.

T1 sequence (P01106 16-454 limits assumed): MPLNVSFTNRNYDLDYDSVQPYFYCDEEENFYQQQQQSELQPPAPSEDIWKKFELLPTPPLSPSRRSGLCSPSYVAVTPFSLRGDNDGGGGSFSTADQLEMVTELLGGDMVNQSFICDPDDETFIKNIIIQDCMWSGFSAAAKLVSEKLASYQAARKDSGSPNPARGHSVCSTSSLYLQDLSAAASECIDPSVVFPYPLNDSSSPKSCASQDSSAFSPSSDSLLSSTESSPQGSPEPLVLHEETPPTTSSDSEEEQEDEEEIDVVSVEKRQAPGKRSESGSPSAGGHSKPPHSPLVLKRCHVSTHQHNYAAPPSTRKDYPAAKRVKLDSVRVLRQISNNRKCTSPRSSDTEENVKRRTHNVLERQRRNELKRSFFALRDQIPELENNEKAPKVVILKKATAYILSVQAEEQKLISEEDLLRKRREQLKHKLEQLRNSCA

For the molecule `O=C1c2ccccc2-c2n[nH]c3cccc1c23` [SP600159], the “level of BCG-induced c-Myc mRNA expression” value (shortened to “level”) in test [1] (setting [5]) is given as “significantly reduced”.

As to `C[n+]1ccc(-c2c3nc(c(-c4cc[n+](C)cc4)c4ccc([nH]4)c(-c4cc[n+](C)cc4)c4ccc([nH]4)c(-c4cc[n+](C)cc4)c4nc2C=C4)C=C3)cc1` [Cationic Porphyrin TMPyP4], the “expression and activity of c-Myc” value in the test on c-Myc [2] is “inhibit both the expression and activity of c-Myc”.

`C[S+]([O-])c1ccc(-c2nc(-c3ccncc3)c(-c3ccc(F)cc3)[nH]2)cc1` (stereo not shown) [SB203580]: the “level” value in test [1] (setting [5]) is listed as “did not affect”.

Consider `O=C(/C=C/c1ccc(O)c(O)c1)OCCc1ccccc1` [CAPE], for which the “level” value in test [1] (15 μg/ml inhibitor 1 hour pretreatment) is “did not affect”. For `COc1cccc(-c2cc(=O)c3ccccc3o2)c1N` [PD98059], in test [1] (setting [5]), the “level” value was “significantly reduced”.

B1: ERK1 (member of ERK1/2, endogenous protein of primary human blood macrophages) (enzyme, UniProt P27361 2-379, looked up)
chain: AAAAAQGGGGGEPRRTEGVGPGVPGEVEMVKGQPFDVGPRYTQLQYIGEGAYGMVSSAYDHVRKTRVAIKKISPFEHQTYCQRTLREIQILLRFRHENVIGIRDILRASTLEAMRDVYIVQDLMETDLYKLLKSQQLSNDHICYFLYQILRGLKYIHSANVLHRDLKPSNLLINTTCDLKICDFGLARIADPEHDHTGFLTEYVATRWYRAPEIMLNSKGYTKSIDIWSVGCILAEMLSNRPIFPGKHYLDQLNHILGILGSPSQEDLNCIINMKARNYLQSLPSKTKVAWAKLFPKSDSKALDLLDRMLTFNPNKRITVEEALAHPYLEQYYDPTDEPVAEEPFTFAMELDDLPKERLKELIFQETARFQPGVLEAP
notes: It is split here into its two members
B1: the binding result in test [3] is reported as “no binding”.

B2: HIV-1 Tat: HIV-1 Tat protein used to treat primary human blood macrophages (protein, UniProt P04608 1-86, looked up)
Protein Tat: MEPVDPRLEPWKHPGSQPKTACTNCYCKKCCFHCQVCFITKALGISYGRKKRRQRRRAHQNSQTHQASLSKQPTSQPRGDPTGPKE
As to B2, the “c-Myc expression (mRNA and protein)” value in the test on c-Myc [4] is reported as “induces c-Myc expression”.

The values are drawn from patent publication US20120107317A1, “USE OF CYTOPLASMIC C-MYC FOR REGULATING IMMUNE RESPONSES” (priority 2010, published 2012).
